Key:
[1] = species on record: Rattus norvegicus; assay: DrugMatrix - Regimen: Daily Repeat; type: toxicity, organism-based, Sprague-Dawley; set-up: regimen Daily Repeat, gender Male, age 6-8 weeks; conditions: in vivo, po, […], route oral GAVAGE, time 14 day
[2] = species on record: Rattus norvegicus; type: toxicity, organism-based, Sprague-Dawley; conditions: in vivo, po, 24 h, route oral GAVAGE, time 1 day
Description: DrugMatrix - Regimen: Single

[3] = 0 mg/kg, tissue Blood, dose level Control, vehicle 100 % WATER
[4] = 0 mg/kg, tissue Plasma, dose level Control, vehicle 100 % WATER
[5] = 330 mg/kg, tissue Blood, dose level High, vehicle .5 % CMC
[6] = 330 mg/kg, tissue Plasma, dose level High, vehicle .5 % CMC

For c1ccncc1 [PYRIDINE], the “ABSOLUTE BASOPHIL” value [1, 3] was 0 CELLS/uL, the “ABSOLUTE EOSINOPHIL” value [1, 3] was 117.17 CELLS/uL and the “ABSOLUTE LYMPHOCYTE” value [1, 3] was 12774.17 CELLS/uL. For the same compound, the “ABSOLUTE MONOCYTE” value [1, 3] was 419 CELLS/uL, the “ABSOLUTE SEGMENTED NEUTROPHIL” value [1, 3] was 2139.67 CELLS/uL and the BASOPHIL [1, 3] was 0%. The EOSINOPHIL [1, 3] was 0.67%, the “ERYTHROCYTE COUNT” value [1, 3] was 6.61 x10E6/uL and the HEMATOCRIT [1, 3] was 37.58%. The HEMOGLOBIN [1, 3] was 13.8 G/DL, the “LEUKOCYTE COUNT” value [1, 3] was 15.45 x10E3/uL and the LYMPHOCYTE [1, 3] was 83%. For the same compound, the “MEAN CORPUSCULAR HEMOGLOBIN” value [1, 3] was 20.87 pg, the “MEAN CORPUSCULAR HEMOGLOBIN CONCENTRATION” value [1, 3] was 36.72 G/DL and the “MEAN CORPUSCULAR VOLUME” value [1, 3] was 56.85 fL. For the same compound, the MONOCYTE [1, 3] was 2.67%, the NEUTROPHIL [1, 3] was 13.67% and the “NUCLEATED RED BLOOD CELLS” value [1, 3] was 0 /100WBC. The “PLATELET COUNT” value [1, 3] was 1108.33 x10E3/uL, the “ALANINE AMINOTRANSFERASE” value [1, 4] was 56.83 u/L and the ALBUMIN [1, 4] was 4.18 G/DL. For the same compound, the “ALKALINE PHOSPHATASE” value [1, 4] was 354.33 u/L, the “ASPARTATE AMINOTRANSFERASE” value [1, 4] was 93.33 u/L and the “BLOOD UREA NITROGEN” value [1, 4] was 16.67 mg/dL. For the same compound, the “CARBON DIOXIDE” value [1, 4] was 27.83 mmol/L, the CHLORIDE [1, 4] was 102.17 MEQ/L and the CHOLESTEROL [1, 4] was 62.33 mg/dL. For the same compound, the CREATININE [1, 4] was 0.2 mg/dL, the GLUCOSE [1, 4] was 137 mg/dL and the “LACTATE DEHYDROGENASE” value [1, 4] was 407 u/L. The LIPASE [1, 4] was 10.83 u/L, the PHOSPHORUS [1, 4] was 11.45 mg/dL and the POTASSIUM [1, 4] was 6.51 MEQ/L. For the same compound, the SODIUM [1, 4] was 145.57 MEQ/L, the “TOTAL BILIRUBIN” value [1, 4] was 0.2 mg/dL and the “TOTAL PROTEIN” value [1, 4] was 6.3 G/DL. For the same compound, the “URIC ACID” value [1, 4] was 1.93 mg/dL, the “ABSOLUTE EOSINOPHIL” value [2, 3] was 91.83 CELLS/uL and the “ABSOLUTE LYMPHOCYTE” value [2, 3] was 13862.33 CELLS/uL. For the same compound, the “ABSOLUTE MONOCYTE” value [2, 3] was 437.83 CELLS/uL, the “ABSOLUTE SEGMENTED NEUTROPHIL” value [2, 3] was 1358 CELLS/uL and the BASOPHIL [2, 3] was 0%. The EOSINOPHIL [2, 3] was 0.5%, the “ERYTHROCYTE COUNT” value [2, 3] was 5.12 x10E6/uL and the HEMATOCRIT [2, 3] was 31.77%. For the same compound, the HEMOGLOBIN [2, 3] was 11.8 G/DL, the “LEUKOCYTE COUNT” value [2, 3] was 15.75 x10E3/uL and the LYMPHOCYTE [2, 3] was 88.33%. For the same compound, the “MEAN CORPUSCULAR HEMOGLOBIN” value [2, 3] was 23.07 pg, the “MEAN CORPUSCULAR HEMOGLOBIN CONCENTRATION” value [2, 3] was 37.17 G/DL and the “MEAN CORPUSCULAR VOLUME” value [2, 3] was 62.15 fL. The MONOCYTE [2, 3] was 2.67%, the NEUTROPHIL [2, 3] was 8.5% and the “NUCLEATED RED BLOOD CELLS” value [2, 3] was 0 /100WBC. For the same compound, the “PLATELET COUNT” value [2, 3] was 1113.83 x10E3/uL, the “ALANINE AMINOTRANSFERASE” value [2, 4] was 45.5 u/L and the ALBUMIN [2, 4] was 4.07 G/DL. The “ALKALINE PHOSPHATASE” value [2, 4] was 343.83 u/L, the “ASPARTATE AMINOTRANSFERASE” value [2, 4] was 70.67 u/L and the “BLOOD UREA NITROGEN” value [2, 4] was 13 mg/dL. The “CARBON DIOXIDE” value [2, 4] was 33 mmol/L, the CHLORIDE [2, 4] was 100.33 MEQ/L and the CHOLESTEROL [2, 4] was 76.67 mg/dL. The CREATININE [2, 4] was 0.12 mg/dL, the GLUCOSE [2, 4] was 148.67 mg/dL and the “LACTATE DEHYDROGENASE” value [2, 4] was 116.67 u/L. For the same compound, the LIPASE [2, 4] was 8 u/L, the PHOSPHORUS [2, 4] was 12.58 mg/dL and the POTASSIUM [2, 4] was 6.33 MEQ/L. The SODIUM [2, 4] was 142.88 MEQ/L, the “TOTAL BILIRUBIN” value [2, 4] was 0.18 mg/dL and the “TOTAL PROTEIN” value [2, 4] was 5.77 G/DL. The “URIC ACID” value [2, 4] was 1.27 mg/dL.

FERROCENE was tested, and the “ABSOLUTE BASOPHIL” value [1, 5] was 0 CELLS/uL, the “ABSOLUTE EOSINOPHIL” value [1, 5] was 150.8 CELLS/uL and the “ABSOLUTE LYMPHOCYTE” value [1, 5] was 17564.8 CELLS/uL. The “ABSOLUTE MONOCYTE” value [1, 5] was 546.8 CELLS/uL, the “ABSOLUTE SEGMENTED NEUTROPHIL” value [1, 5] was 2837.6 CELLS/uL and the BASOPHIL [1, 5] was 0%. For the same compound, the EOSINOPHIL [1, 5] was 0.8%, the “ERYTHROCYTE COUNT” value [1, 5] was 5.16 x10E6/uL and the HEMATOCRIT [1, 5] was 32.2%. For the same compound, the HEMOGLOBIN [1, 5] was 11.86 G/DL, the “LEUKOCYTE COUNT” value [1, 5] was 21.1 x10E3/uL and the LYMPHOCYTE [1, 5] was 83.2%. For the same compound, the “MEAN CORPUSCULAR HEMOGLOBIN” value [1, 5] was 23.1 pg, the “MEAN CORPUSCULAR HEMOGLOBIN CONCENTRATION” value [1, 5] was 36.82 G/DL and the MONOCYTE [1, 5] was 2.6%. For the same compound, the NEUTROPHIL [1, 5] was 13.4%, the “NUCLEATED RED BLOOD CELLS” value [1, 5] was 0 /100WBC and the “PLATELET COUNT” value [1, 5] was 1348 x10E3/uL. The “ALANINE AMINOTRANSFERASE” value [1, 6] was 39.6 u/L, the ALBUMIN [1, 6] was 4.42 G/DL and the “ALKALINE PHOSPHATASE” value [1, 6] was 217.6 u/L. The “ASPARTATE AMINOTRANSFERASE” value [1, 6] was 59.8 u/L, the “BLOOD UREA NITROGEN” value [1, 6] was 15.2 mg/dL and the “CARBON DIOXIDE” value [1, 6] was 25 mmol/L. For the same compound, the CHOLESTEROL [1, 6] was 87.2 mg/dL, the CREATININE [1, 6] was 0.19 mg/dL and the GLUCOSE [1, 6] was 182.6 mg/dL. The LIPASE [1, 6] was 10.2 u/L, the PHOSPHORUS [1, 6] was 12.74 mg/dL and the “TOTAL BILIRUBIN” value [1, 6] was 0.22 mg/dL. The “TOTAL PROTEIN” value [1, 6] was 6.84 G/DL, the “URIC ACID” value [1, 6] was 2.68 mg/dL and the “ABSOLUTE EOSINOPHIL” value [2, 5] was 50.33 CELLS/uL. For the same compound, the “ABSOLUTE LYMPHOCYTE” value [2, 5] was 10757 CELLS/uL, the “ABSOLUTE MONOCYTE” value [2, 5] was 373 CELLS/uL and the “ABSOLUTE SEGMENTED NEUTROPHIL” value [2, 5] was 1253 CELLS/uL. The BASOPHIL [2, 5] was 0%, the EOSINOPHIL [2, 5] was 0.33% and the “ERYTHROCYTE COUNT” value [2, 5] was 5.36 x10E6/uL. For the same compound, the HEMATOCRIT [2, 5] was 33.23%, the HEMOGLOBIN [2, 5] was 12.53 G/DL and the “LEUKOCYTE COUNT” value [2, 5] was 12.43 x10E3/uL. The LYMPHOCYTE [2, 5] was 87%, the “MEAN CORPUSCULAR HEMOGLOBIN” value [2, 5] was 23.47 pg and the “MEAN CORPUSCULAR HEMOGLOBIN CONCENTRATION” value [2, 5] was 37.7 G/DL. For the same compound, the MONOCYTE [2, 5] was 3%, the NEUTROPHIL [2, 5] was 9.67% and the “NUCLEATED RED BLOOD CELLS” value [2, 5] was 0 /100WBC. The “PLATELET COUNT” value [2, 5] was 1189.67 x10E3/uL, the “ALANINE AMINOTRANSFERASE” value [2, 6] was 42.67 u/L and the ALBUMIN [2, 6] was 4.5 G/DL. The “ALKALINE PHOSPHATASE” value [2, 6] was 371.33 u/L, the “ASPARTATE AMINOTRANSFERASE” value [2, 6] was 77 u/L and the “BLOOD UREA NITROGEN” value [2, 6] was 11.67 mg/dL. For the same compound, the “CARBON DIOXIDE” value [2, 6] was 26.33 mmol/L, the CREATININE [2, 6] was 0.18 mg/dL and the “LACTATE DEHYDROGENASE” value [2, 6] was 127.67 u/L. For the same compound, the LIPASE [2, 6] was 8.33 u/L, the PHOSPHORUS [2, 6] was 12.47 mg/dL and the POTASSIUM [2, 6] was 6.09 MEQ/L. The “TOTAL BILIRUBIN” value [2, 6] was 0.13 mg/dL, the “TOTAL PROTEIN” value [2, 6] was 6.33 G/DL and the “URIC ACID” value [2, 6] was 1.03 mg/dL.

From ChEMBL document CHEMBL3885881, “DrugMatrix”
